Assay [1] deals with A. nidulans WT and mutant strains. The assay is classed as cell-based, Aspergillus nidulans. The conditions noted are these: for growth stunting on solid AMM: up to 100 mM, 1 mM nitrate (or proline) as sole nitrogen source, data not shown. The method, then: (§1) Fungal growth tests were carried out in standard Petri dishes containing defined Aspergillus minimal medium (AMM) agar ([Cove, 1976]), with sodium nitrate or proline as the sole nitrogen source, at 1 or 10 mM concentration. Strains were tested for inhibition by bicarbonate, formate, oxalate, chlorite, sulphite (all purchased as the sodium salt), chlorate (potassium salt), malonate (acid form) or caesium (chloride salt). Stock aqueous solutions of inhibitors were adjusted to pH 6.5 and prepared immediately before use. It should be noted that at pH 6.5, bicarbonate is in approximately 50 % equilibrium with carbonic acid. […] Cultures were incubated routinely at 37 °C for 48 h, and the growth response was scored.
(§2) Each treatment was carried out in five replicates. […] As caesium was utilized as a chloride salt, a control for potential inhibition by chloride was assessed, by growth on 100 mM sodium chloride (Fig. 4).
Unlike chlorate, commercial chemical supplies of chlorite typically contain a relatively high percentage (20 %) of contaminants. […] The pH of this solution was adjusted to 6.5 and aliquots incorporated into solid AMM (with nitrate or proline as the nitrogen source) at final concentrations equivalent to those that would be present in agar medium containing 10 mM chlorite (i.e. 1.56 mM sodium chloride, 0.28 mM sodium chlorate, 0.68 mM sodium hydroxide and 0.17 mM sodium carbonate).

Assay [2] concerns nitrate transport by NrtA and NrtB. Kind of assay: Net nitrate transport inhibition assays, strain not specified. The assay is classed as cell-based, Aspergillus nidulans. The conditions noted are these: net nitrate transport inhibition assays (Tables 3 and 4). The method, then:
(§3) These were performed on cultures grown in liquid AMM with 5 mM urea as nitrogen source for a total of 6.5 h at 37 °C ([Brownlee & Arst, 1983]). Urea was used as it (i) is a neutral nitrogen source, neither inducing nor repressing nitrate transport, (ii) has been used routinely in the past and (iii) permitted direct comparison with previously published results. […] Transporter activity was induced by the addition of 10 mM sodium nitrate 100 min prior to assay as described previously ([Brownlee & Arst, 1983]). Assays were carried out in triplicate, generally at pH 6.5, on three independently grown cultures for each strain and expressed as nmol nitrate removed from the medium min^ − 1 (mg dried mycelium)^ − 1, as discussed before ([Brownlee & Arst, 1983]; [Kinghorn et al., 2005]; [Unkles et al., 2012]). Both carbonic acid and bicarbonate chemical species can occur at pH 6.5. Thus potential inhibition of nitrate transport by carbonic acid/bicarbonate was tested at pH 6.5 and bicarbonate at pH 8.3.
(§4) To effectively assess net uptake, it is necessary that any export, i.e. simultaneous transport in the reverse direction, is minimal.

The target in assay [3] is T1, NrtA (Emericella nidulans, UniProt P22152). Put plainly: cell-based. Set-up: mutant nrtB110 (expressing a functional NrtA); endogenous in cells; host or cells: Aspergillus nidulans mycelium, knockout strain nrtB110, nitrate-induced; species or system Aspergillus nidulans. The conditions noted are these: for nature of inhibition of nitrate transport (Lineweaver–Burk): NrtA (expressed in nrtB110). The method, then: as §3, §4
T1 sequence (P22152 whole entry): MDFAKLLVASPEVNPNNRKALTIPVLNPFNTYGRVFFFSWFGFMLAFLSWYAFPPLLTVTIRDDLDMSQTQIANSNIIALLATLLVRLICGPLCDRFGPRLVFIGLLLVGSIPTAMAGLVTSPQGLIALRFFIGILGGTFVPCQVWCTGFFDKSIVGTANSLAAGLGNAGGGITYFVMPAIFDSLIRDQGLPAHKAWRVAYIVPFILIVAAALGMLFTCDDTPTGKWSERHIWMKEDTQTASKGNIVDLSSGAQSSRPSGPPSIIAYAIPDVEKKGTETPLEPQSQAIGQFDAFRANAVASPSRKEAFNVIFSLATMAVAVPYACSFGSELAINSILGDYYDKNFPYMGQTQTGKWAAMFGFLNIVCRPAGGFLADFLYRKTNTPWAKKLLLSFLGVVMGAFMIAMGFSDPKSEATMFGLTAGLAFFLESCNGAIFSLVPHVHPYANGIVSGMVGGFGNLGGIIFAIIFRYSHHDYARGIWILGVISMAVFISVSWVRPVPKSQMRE
(§5) Values of K m and V max were calculated by linear regression of Lineweaver–Burk analyses (1/v against 1/s, where v is net uptake and s is substrate concentration). The kinetic values of nitrate transport by the WT and mutants were compared with those from a previous report ([Unkles et al., 2001]). […] Therefore the kinetic values in the absence of inhibitors from the present study were used as control values. Each K i value was determined by regression of the rates of net nitrate uptake transport versus the range of concentrations of a particular inhibitor: linear or nonlinear regression was used, depending on which type provided the highest r ^2 value. Calculated from each regression was the concentration of the inhibitor that reduced net nitrate uptake rate by 50 % of the control (without inhibitor) rate, which was assessed as the K i value. Lineweaver–Burk analyses were carried out to determine the nature of the inhibition of nitrate transport for each inhibitor.

For assay [4], the system named is NrtB. It counts as cell-based, Aspergillus nidulans. The conditions noted are these: for Nitrate uptake ± SE: nrtA747 (NrtB); for nature of inhibition of nitrate transport (Lineweaver–Burk): NrtB (expressed in nrtA1); for Ki: inhibitor concentration reducing net nitrate uptake rate by 50 % of control. The method, then:
as §3, §4, §5

The target in assay [5] is NrtA, NrtB (WT strain). Put plainly: Net nitrate uptake assay and kinetics, WT strain. The assay is classed as cell-based, Aspergillus nidulans. The conditions noted are these: mean ± SE; for Ki: WT (NrtA, NrtB), inhibitor concentration reducing net nitrate uptake rate by 50 % of control. The protocol: as §3, §4, §5
For assay [6], the system named is A. nidulans WT strain (NrtA, NrtB). Put plainly: MIC growth test on solid AMM, WT strain. It counts as cell-based, Aspergillus nidulans. The method, then:
as §1, §2

In assay [7] the test system is A. nidulans double mutant tbl110 (nrtA747 nrtB110, neither transporter). Put plainly: microbe, parasite or virus in culture. The assay is classed as cell-based, Aspergillus nidulans. The conditions noted are these: T110 (neither transporter). The method, then:
as §1, §2

The test system of assay [8] is A. nidulans mutant nrtA1 (functional NrtB). Put plainly: microbe, parasite or virus in culture. It counts as cell-based, Aspergillus nidulans. The protocol: as §1, §2
Assay [9] deals with A. nidulans mutant nrtB110 (functional NrtA). Put plainly: microbe, parasite or virus in culture. It counts as cell-based, Aspergillus nidulans. The method, then:
as §1, §2

The test system of assay [10] is NrtB. The conditions noted are these: cited from earlier work.
Assay [11] relates to A. nidulans WT strain. The conditions noted are these: ref Wang et al., 2007; cited from earlier work.
Assay [12] deals with T1, NrtA. The conditions noted are these: cited from earlier work.
Where [13] appears, read: Aspergillus nidulans, 1 mM proline as sole nitrogen source.
[14] abbreviates: Aspergillus nidulans, 10 mM nitrate as sole nitrogen source.
Setting [15] is: Aspergillus nidulans, 10 mM proline as sole nitrogen source.
Setting [16] is: nrtB110 (NrtA), 1 mM nitrate as sole nitrogen source.
The mark [17] stands for this setting: nrtB110 (NrtA), 1 mM proline as sole nitrogen source.
Where [18] appears, read: nrtB110 (NrtA), 10 mM nitrate as sole nitrogen source.
Where [19] appears, read: nrtB110 (NrtA), 10 mM proline as sole nitrogen source.
Where [20] appears, read: nrtB110 (NrtA), pH 6.5, in presence of the anion, control without anion 10.6 ± 1.4.
Setting [21] is: pH 6.5, in presence of the anion, control without anion 2.9 ± 0.1.
Where [22] appears, read: 1 mM proline as sole nitrogen source.
Setting [23] is: 10 mM nitrate as sole nitrogen source.
Where [24] appears, read: 10 mM proline as sole nitrogen source.
[25] abbreviates: nitrate transport, WT, no inhibitor.
Setting [26] is: nitrate transport, nrtB110 (NrtA), no inhibitor, mean ± SE.
Setting [27] is: nitrate transport, nrtA1 (NrtB), no inhibitor, mean ± SE.

In brackets after ≈: the same amount, converted by molar mass. Several values for one entry are separate records, joined by “and”; a condition that tells them apart may be missing. Equal values may be shown once. Read-outs that look alike come from different tables or passages of the source.

The term Ki denotes a measure of affinity in units of concentration, obtained from inhibition or displacement. A high value points to weaker binding.

In the case of `O=C(O)O` [Bicarbonate, bicarbonate], the “growth stunting on solid AMM” value in assay [1] is recorded as “no convincing phenotypic evidence of growth stunting”. Further, the “inhibition of nitrate transport / uptake” value in assay [2] is reported as “did not inhibit growth or nitrate uptake”. In addition, the “Nitrate uptake ± SE” value in assay [3] (nrtB110 (NrtA), pH 8.3, in presence of the anion, control without anion 0.7 ± 0.4) is 0.5 ± 0.7 nmol NO3 min^− 1 mg^− 1; in assay [4] (pH 8.3, in presence of the anion, control without anion 1.9 ± 0.7), 1.9 ± 0.3 nmol NO3 min^− 1 mg^− 1.

Take `[Cs+]` [Caesium, caesium]: the Ki in assay [5] was 45.1 ± 6.1 mM; in assay [5] (listed as caesium), 45 mM; in assay [3] (K i, nrtB110 (NrtA), inhibitor concentration reducing net nitrate uptake rate by 50 % of control, mean ± SE), 55 mM and 54.8 mM; in assay [4] (nrtA1 (NrtB), mean ± SE) it was 2.6 ± 0.02 mM; in [4] (nrtA1 (NrtB), mean ± SE, listed as caesium) it was around 3 mM. For the same compound, the MIC is 100 mM in assay [6] (Aspergillus nidulans, 1 mM nitrate as sole nitrogen source, solid AMM, 37 °C); 80 mM in assay [6] (setting [13]); above 100 mM in assay [6] (setting [14]); 60 mM in [6] (setting [15]); 100 mM in [7] (setting [13]); above 100 mM in assay [7] (setting [15]). The MIC in assay [8] (Aspergillus nidulans, 1 mM nitrate as sole nitrogen source) is 40 mM; in assay [8] (setting [13]) it was 80 mM; in assay [8] (setting [14]), 30 mM; in assay [8] (setting [15]) it was 60 mM; in assay [9] (Aspergillus nidulans), above 100 mM; in assay [9] (setting [16]), above 100 mM. Besides, the MIC in assay [9] (setting [17]), in assay [9] (setting [18]) and in [9] (setting [19]) was above 100 mM in each case. The “nature of inhibition of nitrate transport (Lineweaver–Burk)” value in [3] is listed as “non-competitive inhibitor”; in assay [3] (listed as caesium) it was “non-competitive inhibition”; in assay [4] it was “uncompetitive”; in assay [4] (listed as caesium) it was “uncompetitive inhibition”.

On to `O=CO` [Formate], for which the “growth stunting on solid AMM” value in [1] is “no convincing phenotypic evidence of growth stunting”. Besides, in assay [2], the “inhibition of nitrate transport / uptake” value is “did not inhibit growth or nitrate uptake”. Also, the “Nitrate uptake ± SE” value in [3] (setting [20]) is recorded as 8.1 ± 0.4 nmol NO3 min^− 1 mg^− 1; in assay [4] (setting [21]), 2.7 ± 0.1 nmol NO3 min^− 1 mg^− 1.

Turning to `O=C(O)CC(=O)O` [Malonate, malonate], the “growth stunting on solid AMM” value in assay [1] is “no convincing phenotypic evidence of growth stunting”. Also, in assay [2], the “inhibition of nitrate transport / uptake” value is “did not inhibit growth or nitrate uptake”. Besides, the “Nitrate uptake ± SE” value in assay [4] (setting [21]) worked out at 2.7 ± 0.2 nmol NO3 min^− 1 mg^− 1.

`O=C(O)C(=O)O` [Oxalate]: the “growth stunting on solid AMM” value in [1] is “no convincing phenotypic evidence of growth stunting”. In addition, in [2], the “inhibition of nitrate transport / uptake” value is “did not inhibit growth or nitrate uptake”. The “Nitrate uptake ± SE” value came to 9.7 ± 0.4 nmol NO3 min^− 1 mg^− 1 in [3] (setting [20]) and 2.4 ± 0.1 nmol NO3 min^− 1 mg^− 1 in assay [4] (setting [21]).

As to `O=S(O)O` [Sulphite, sulphite], the “concentration at which growth ceased” value in assay [1] (media with 10 mM nitrate) is given as 15 mM; in assay [1] (media with 10 mM proline), above 25 mM; in assay [1] (media with either 1 mM nitrate or proline), 15 mM. Moreover, the MIC in [6] (1 mM nitrate as sole nitrogen source, solid AMM, 37 °C) was 15 mM (≈ 1230 µg/mL); in assay [6] (setting [22]), 15 mM (≈ 1230 µg/mL); in assay [6] (setting [23]), 15 mM (≈ 1230 µg/mL); in [6] (setting [24]) it was above 25 mM; in assay [7] (setting [22]), 15 mM (≈ 1230 µg/mL); in [7] (setting [24]), above 25 mM. Further, the MIC in [8] (1 mM nitrate as sole nitrogen source) is listed as 15 mM (≈ 1230 µg/mL); in assay [8] (setting [22]), 15 mM (≈ 1230 µg/mL); in [8] (setting [23]) it was 15 mM (≈ 1230 µg/mL); in assay [8] (setting [24]), above 25 mM; in assay [9] (setting [16]), 15 mM (≈ 1230 µg/mL); in assay [9] (setting [17]), 15 mM (≈ 1230 µg/mL). Moreover, the MIC was 15 mM (≈ 1230 µg/mL) in assay [9] (setting [18]) and above 25 mM in [9] (setting [19]).

On to `O=[N+]([O-])O` [nitrate], for which the K m in [5] (setting [25]) is 0.0571 ± 0.0026 mM; in assay [3] (setting [26]), 0.041 ± 0.0048 mM; in assay [4] (setting [27]) it was 0.0114 ± 0.0024 mM. Further, the V max came to 14.2 ± 0.8 in assay [5] (setting [25]), 9.1 ± 0.8 in assay [3] (setting [26]) and 3.6 ± 0.2 in assay [4] (setting [27]). Also, the “K m for nitrate” value was 0.011 mM in assay [10] (ref Unkles et al., 2001) and 0.096 mM in assay [12] (ref Unkles et al., 2001). The “rate of nitrate efflux as % of influx” value in assay [11] is 8%.

Consider `O=NO` [nitrite], for which the “K m for nitrite” value in [10] (ref Wang et al., 2008) was 0.011 mM; in assay [12] (ref Wang et al., 2008), 0.016 mM.

As for `[Cl-].[Na+]` [sodium chloride], the effect on growth result in assay [1] (100 mM sodium chloride, control for chloride) is reported as “no effect on growth”.

With Carbonic acid/bicarbonate, the “growth stunting on solid AMM” value in assay [1] is reported as “no convincing phenotypic evidence of growth stunting”. For the same compound, the figures for the “Nitrate uptake ± SE” value in [3] (setting [20]) and in assay [4] (setting [21]) were 11.1 ± 0.4 nmol NO3 min^− 1 mg^− 1 and 2.7 ± 0.1 nmol NO3 min^− 1 mg^− 1, respectively.

These data come from publication PMC4635503, “High-affinity nitrate/nitrite transporters NrtA and NrtB of Aspergillus nidulans exhibit high specificity and different inhibitor sensitivity” (Microbiology, 2015).
